Assay results as given in US20240217932A1, “PYRIDIUM ESTERS” (The Procter & Gamble Company, priority 2022, published 2024).

What was measured:
staphylococcus aureus = experiment: Surface Antimicrobial Kill Testing Method, activity normalized to triclosan internal standard (Gram positive); format: cell-based
Procedure: (§1) Inoculum is prepared by streaking microorganism onto a Tryptic Soy Agar (TSA) plate and incubating for 24 h at 33° C. Plated bacteria is resuspended in saline until the transmittance percentage falls within the accepted range for ˜10^8 cfu/mL. For K. pneumonia (Kp) and P. aeruginosa (Pa), this is 31.00-33.00% T. For S. aureus (Sa) this is 23.00-25.00% T. A 10× concentration is made by spinning down the prepared inoculum, removing the supernatant saline from the bacterial pellet, then resuspending the pellet in 1/10th of the original volume of saline. The final inoculum is prepared with 5% of “soil” in the form of Fetal Bovine Serum (FBS).
(§2) A 18×18 mm sterile glass coverslip is placed into an appropriate container (e.g. petri dish). 20 μL of prepared inoculum is added to the glass coverslip. Inoculum is then air-dried for 30 minutes in a 36° C. incubator. After drying, 40 μL of test sample is added on top of the dried inoculum. This is incubated at room temperature for the desired contact time. 5 mL of neutralizing media (Modified Letheen Broth+Tween+Lecithin (MLBTL)) is added to the coverslip and shaken on an orbital shaker for 5 minutes to ensure proper neutralization and extraction. Viability is then assessed of the neutralized and extracted sample by traditional/alternative microbiological techniques.
(§3) The normalized antimicrobial activity reported in the performance examples below was generated from detection time data obtained as described in the Surface Antimicrobial Kill Test Method. To account for day-to-day variability an internal standard was tested with each series. The internal standard was a composition of 0.25 wt % Triclosan, Sigma Aldrich (St. Louis, MO, USA; CAS #3380-34-5, 97.0-103.0% (active substance, GC)), 50 wt % DMSO, and 49.75 wt % H2O, with a final solution pH of 7.7. Normalized activity is reported following the equation 1 below.
(§4) Normalized Activity=(αΔDT-βΔDT)/(γΔDT-βΔDT) equation 1.
(§5) where, αΔDT is the average detection time of the antimicrobial compound, and γΔDT is the average detection time of the reference triclosan internal standard, and βΔDT is the average detection time of the background unperturbed bacteria.
(§6) Pyridinium esters of the present disclosure were tested as aqueous solutions in the Surface Antimicrobial Kill Testing Method above. To prepare test solutions pyridinium esters were first dissolved in the appropriate solvent. Second the selected surfactant is added to the mixture. After vortex (1 min, Vortex-2 Genie, vortex speed 8) mixing, the samples were then diluted with ½ portion of reverse osmosis water (RO water, Millipore Direct-Q™, pH 6). The aqueous solution was then vortexed (1 min, Vortex-2 Genie, vortex speed 8), to which the second ½ portion of water is added. The pH of the solution was then adjusted to the target pH using either 1N HCl, Glacial Acetic Acid, or 1N NaOH. The final solution was then vortexed (1 min, Vortex-2 Genic, vortex speed 8). An example batch sheet is provided below in Table 1.
(§7) In Performance Examples 1-4 below, formulations comprising solvent, surfactant, and pyridinium esters according to the present disclosure (e.g., based on hexyl 3-(alkylpyridinium)acrylate halides), are evaluated via microbial surface kill tests according to the Surface Antimicrobial Kill Testing Method provided above. After treatment, microbial growth is referenced and reported to a triclosan sample and unaltered microbes according to the Normalization of Antimicrobial Activity provided above.

[1] = Stability of the isolated solid by 1H NMR; format: physicochemical
Gram Negative bacteria = experiment: Surface Antimicrobial Kill Testing Method, activity normalized to triclosan internal standard (Gram negative); format: cell-based; conditions: water, pH 7
Procedure: as §1, §2, §3, §4, §5, §6, §7

[2] = 0.5 wt % compound, 3 wt % DEGBE, 1 wt % EcoSurf EH-9, 95.5 wt % reverse osmosis water, pH 7

Structure (SMILES): CCCCCCOC(=O)/C=C/c1cccnc1 [Synthetic Example 1, hexyl 3-(3-pyridyl)acrylate]
- Gram Positive Referenced Microbial Activity (staphylococcus aureus; [2]): 0.11

Structure (SMILES): CCCCCCOC(=O)/C=C/c1ccc[n+](C)c1.[I-] [Synthetic Example 3, hexyl 3-(3-methylpyridinium)acrylate iodide]
- Stability of the independent solid by 1H NMR [1]: stable for several months
- Gram Positive Referenced Microbial Activity (staphylococcus aureus; [2]): 0.21

Structure (SMILES): CCCCCCOC(=O)/C=C/c1cc[n+](C)cc1.[I-] [Synthetic Example 4, hexyl 3-(4-methylpyridinium)acrylate iodide]
- Stability of the independent solid by 1H NMR [1]: stable for several months
- Gram Positive Referenced Microbial Activity (staphylococcus aureus; [2]): 1.2

Structure (SMILES): CCCCCCOC(=O)/C=C/c1ccc[n+](CCCCCC)c1.[Br-] [Synthetic Example 5, hexyl 3-(3-hexylpyridinium)acrylate bromide]
- Gram Negative Referenced Microbial Activity (Gram Negative bacteria; 0.25 % Synthetic Example 5, 1 wt % Crodasinic LS30, 3 wt % DEGBE): 0.41
- Gram Negative Referenced Microbial Activity (Gram Negative bacteria; 0.25 % Synthetic Example 5, 1 wt % EH6, 3 wt % DEGBE): >2.58
- Gram Negative Referenced Microbial Activity (Gram Negative bacteria; 0.25 % Synthetic Example 5, 1 wt % L24-9, 3 wt % DEGBE): 1.34
- Gram Negative Referenced Microbial Activity (Gram Negative bacteria; 0.25 % Synthetic Example 5, 1 wt % Miranol Ultra, 3 wt % DEGBE): 1.92
- Gram Negative Referenced Microbial Activity (Gram Negative bacteria; 0.25 % Synthetic Example 5, 1 wt % Plantaren 2000, 3 wt % DEGBE): >2.58
- Gram Negative Referenced Microbial Activity (Gram Negative bacteria; 0.25 % Synthetic Example 5, 1 wt % SLS, 3 wt % DEGBE): 0.08
- Gram Negative Referenced Microbial Activity (Gram Negative bacteria; 0.25 % Synthetic Example 5, 1 wt % Tween80, 3 wt % DEGBE): 1.37
- Stability of the independent solid by 1H NMR [1]: stable for several months
- Gram Positive Referenced Microbial Activity (staphylococcus aureus; 0.063 wt % Synthetic Example 5, 1 wt % EcoSurf EH9, 3 wt % DEGBE, water, pH 7): 0.55
- Gram Positive Referenced Microbial Activity (staphylococcus aureus; 0.125 wt % Synthetic Example 5, 1 wt % EcoSurf EH9, 3 wt % DEGBE, water, pH 7): 0.93
- Gram Positive Referenced Microbial Activity (staphylococcus aureus; 0.25 % Synthetic Example 5, 1 wt % Crodasinic LS30, 3 wt % DEGBE, water, pH 7): 0.42
- Gram Positive Referenced Microbial Activity (staphylococcus aureus; 0.25 % Synthetic Example 5, 1 wt % EH6, 3 wt % DEGBE, water, pH 7): 1.09
- Gram Positive Referenced Microbial Activity (staphylococcus aureus; 0.25 % Synthetic Example 5, 1 wt % L24-9, 3 wt % DEGBE, water, pH 7): 0.54
- Gram Positive Referenced Microbial Activity (staphylococcus aureus; 0.25 % Synthetic Example 5, 1 wt % Miranol Ultra, 3 wt % DEGBE, water, pH 7): 0.78
- Gram Positive Referenced Microbial Activity (staphylococcus aureus; 0.25 % Synthetic Example 5, 1 wt % Plantaren 2000, 3 wt % DEGBE, water, pH 7): >2.33
- Gram Positive Referenced Microbial Activity (staphylococcus aureus; 0.25 % Synthetic Example 5, 1 wt % SLS, 3 wt % DEGBE, water, pH 7): 0.20
- Gram Positive Referenced Microbial Activity (staphylococcus aureus; 0.25 % Synthetic Example 5, 1 wt % Tween80, 3 wt % DEGBE, water, pH 7): 0.57
- Gram Positive Referenced Microbial Activity (staphylococcus aureus; 0.25 wt % Synthetic Example 5, 1 wt % EcoSurf EH9, 3 wt % DEGBE, water, pH 7): 2.02
- Gram Positive Referenced Microbial Activity (staphylococcus aureus; 0.5 wt % Synthetic Example 5, 1 wt % EcoSurf EH9, 3 wt % DEGBE, water, pH 7 (concentration series)): >2.87
- Gram Positive Referenced Microbial Activity (staphylococcus aureus; [2]): >1.42
- pH range of formulations in which antimicrobial efficacy is maintained (staphylococcus aureus; formulations of table 16): 3-9
- Concentration down to which antimicrobial efficacy against staphylococcus aureus is maintained (staphylococcus aureus; formulations of table 17): ≥ 0.063 wt %
- Gram Positive Referenced Microbial Activity (staphylococcus aureus; pH 3, 0.5 wt % compound, 1 wt % EcoSurf EH9, 3 wt % DEGBE, 95.5 wt % water): >2.58
- Gram Positive Referenced Microbial Activity (staphylococcus aureus; pH 7, 0.5 wt % compound, 1 wt % EcoSurf EH9, 3 wt % DEGBE, 95.5 wt % water (pH series)): >2.8
- Gram Positive Referenced Microbial Activity (staphylococcus aureus; pH 9, 0.5 wt % compound, 1 wt % EcoSurf EH9, 3 wt % DEGBE, 95.5 wt % water): 2.53

Structure (SMILES): CCCCCCOC(=O)/C=C/c1cc[n+](CCCCCC)cc1.[Br-] [Synthetic Example 6, hexyl 3-(4-hexylpyridinium)acrylate bromide]
- Stability of the independent solid by 1H NMR [1]: stable for several months
- Gram Positive Referenced Microbial Activity (staphylococcus aureus; [2]): >1.39

Structure (SMILES): CCCCCCCC[n+]1cccc(/C=C/C(=O)OCCCCCC)c1.[Br-] [Synthetic Example 7, hexyl 3-(3-octylpyridinium)acrylate bromide]
- Stability of the independent solid by 1H NMR [1]: stable for several months
- Gram Positive Referenced Microbial Activity (staphylococcus aureus; [2]): >1.42

Structure (SMILES): CCCCCCCC[n+]1ccc(/C=C/C(=O)OCCCCCC)cc1.[Br-] [Synthetic Example 8, hexyl 3-(4-octylpyridinium)acrylate bromide]
- Stability of the independent solid by 1H NMR [1]: stable for several months
- Gram Positive Referenced Microbial Activity (staphylococcus aureus; [2]): >1.33
